Laboratory results taken from patent US11517568B2, “Compounds and methods for treating nematode infections” (The Governing Council of The University of Toronto, priority 2018, dated 2022).
Read-outs that look alike come from different tables or passages of the source.

How the values were obtained:
[1] = system: wild type fourth-stage C. elegans larvae (L4s); test: Locomotory defects (coiled and/or paralysis) in wild type fourth-stage C. elegans larvae on solid substrate; assay type: in vivo, Caenorhabditis elegans; settings: for Activity (%): percent of animals that show coiled and/or paralysis: 60 μM, after 60 min on solid substrate, L4 C. elegans
Method: A preliminary first round of SAR analyses using analogs of exemplary compound Ia was performed and the analogs' ability to induce locomotory defects in wild type fourth-stage C. elegans larvae (L4s) was tested.
If phenotype is observed, a dose-response analysis is performed.

L3 animals = test: Abnormal locomotory behaviour of L3 animals on solid agar (extended SAR); assay type: in vivo, Caenorhabditis elegans; settings: L3, mean of 4 replicates; for pest or weed control at 3.75 µM / pest or weed control at 15 µM / pest or weed control at 60 µM: Caenorhabditis elegans; for pest or weed control at 3.75 µM / % any phene 1 h (conc.) 3.75 / % any phene 6 h (conc.) 3.75 / % any phene 24 h (conc.) 3.75: 3.75 uM; for pest or weed control at 15 µM / % any phene 1 h (conc.) 15 / % any phene 6 h (conc.) 15 / % any phene 24 h (conc.) 15: 15 uM; for pest or weed control at 60 µM / % any phene 1 h (conc.) 60 / % any phene 6 h (conc.) 60 / % any phene 24 h (conc.) 60: 60 uM
Method: 20 animals were scored after either 1, 6 or 24 hours of exposure to drug (as indicated) per replicate. […] Data are reported as the mean % of animals with abnormal phenotype over 4 independent replicates.

wild type C. elegans = test: Manual monitoring of locomotion phenotype of wild type C. elegans on solid agar containing the small molecule; assay type: in vivo, Caenorhabditis elegans; settings: solid agar substrate
Excerpt: The ability of the 64 Egl hits to modulate the normal sinusoidal locomotion of wild type C. elegans was then examined. The animal's behaviour over the course of several hours was manually monitored while the animal moved atop a solid agar substrate containing the small molecule. Many different genes govern the sinusoidal locomotion of wild type C. elegans, but their mutation can lead to qualitatively distinct locomotory phenotypes.

C. elegans = test: Forward genetic screens for mutants resisting early larval lethal effects; assay type: in vivo, Caenorhabditis elegans; settings: over 200,000 F1 and over 100,000 F2 animals screened
Method: Forward genetic screens were performed for mutants that can resist the early larval lethal effects of compound Ic and compound Id. Over 200,000 F1 animals and over 100,000 F2 animals from randomly mutagenized parents/grandparents were screened.

fish = test: Dose-response analysis in fish, cardiac defects; assay type: in vivo

Row | SMILES | Activity (%): percent of animals that show coiled and/or paralysis [1] | % any phene 1 h (conc.) 3.75 (L3 animals; 1 h exposure) | % any phene 6 h (conc.) 3.75 (L3 animals; 6 h exposure) | % any phene 24 h (conc.) 3.75 (L3 animals; 24 h exposure) | % any phene 1 h (conc.) 15 (L3 animals; 1 h exposure) | % any phene 6 h (conc.) 15 (L3 animals; 6 h exposure) | % any phene 24 h (conc.) 15 (L3 animals; 24 h exposure) | % any phene 1 h (conc.) 60 (L3 animals; 1 h exposure) | % any phene 6 h (conc.) 60 (L3 animals; 6 h exposure) | % any phene 24 h (conc.) 60 (L3 animals; 24 h exposure) | other results
1 | CCC1CCC(N2CCN(c3ccc([N+](=O)[O-])cc3)CC2)CC1 (stereo not drawn) [Ic] | 71% +/− 2.1 | – | – | – | – | – | – | – | – | – | pest or weed control at 3.75 µM (L3 animals; 1 h exposure, read-out: % any phene 1 h (conc.) 3.75): 29.2%; pest or weed control at 3.75 µM (L3 animals; 6 h exposure, read-out: % any phene 6 h (conc.) 3.75): 8.3%; pest or weed control at 3.75 µM (L3 animals; 24 h exposure, read-out: % any phene 24 h (conc.) 3.75): 0%; pest or weed control at 15 µM (L3 animals; 1 h exposure, read-out: % any phene 1 h (conc.) 15): 95.9%; pest or weed control at 15 µM (L3 animals; 6 h exposure, read-out: % any phene 6 h (conc.) 15): 80.8%; pest or weed control at 15 µM (L3 animals; 24 h exposure, read-out: % any phene 24 h (conc.) 15): 89.2%; pest or weed control at 60 µM (L3 animals; 1 h exposure, read-out: % any phene 1 h (conc.) 60): 100%; pest or weed control at 60 µM (L3 animals; 6 h exposure, read-out: % any phene 6 h (conc.) 60): 100%; pest or weed control at 60 µM (L3 animals; 24 h exposure, read-out: % any phene 24 h (conc.) 60): 100%
2 | O=[N+]([O-])c1ccc(N2CCN(CC3CC4C=CC3C4)CC2)cc1 (stereo not drawn) [Compound Id] | 0.00% | 19.2% | 5.8% | 0.0% | 65.5% | 36.7% | 45.0% | 95.8% | 100.0% | 95.8% | locomotory phenotype induced (wild type C. elegans): ‘jerky-unc’ phenotype; mutants resisting early larval lethal effects (C. elegans): No mutants that could resist the lethal effects
3 | C1CNCCN1 [Piperazine, reference compound] | 0.00% | – | – | – | – | – | – | – | – | – | –
4 | c1ccc(N2CCN(CC3CCCCC3)CC2)cc1 [Ii] | 19% +/− 8.1 | 16.2% | 0.0% | 0.0% | 39.2% | 0.8% | 0.0% | 84.2% | 44.2% | 20.5% | –
5 | O=[N+]([O-])c1ccc(N2CCN(CC3CC=CCC3)CC2)cc1 (stereo not drawn) [Ie] | 19% +/− 8.0 | 15.0% | 0.0% | 0.0% | 45.0% | 56.7% | 0.0% | 94.2% | 80.8% | 57.5% | locomotory phenotype induced (wild type C. elegans): ‘severe’ snake-like coiler phenotype and paralysis; cardiac defects in fish (fish): strongest cardiac defects
6 | N#Cc1ccc(N2CCN(CC3CCCC3)CC2)cc1 [Ip] | 41% +/− 7.4 | 0.8% | 0.0% | 0.0% | 29.2% | 10.0% | 0.0% | 91.3% | 42.5% | 62.5% | –
7 | O=[N+]([O-])c1ccc(N2CCN(CC3CCCC3)CC2)cc1 [If] | 98% +/− 1.9 | – | – | – | – | – | – | – | – | – | rank among analogs for inducing locomotory defects ([1]; SAR comparison with compound Ia analogs): most potent analog to date
